Where “and” joins values, the source holds several entries; their conditions need not be identical. Equal entries are not always repeated.
How the values were obtained:
Assay type in all cases: biochemical
rat liver homogenate = assay: Indigoid-dye formation in rat liver homogenate; settings: indoxyl 1 mM in rat liver homogenate, 5% DMF, 37° C., 24 h; ε = 1.27 × 10^4 M^−1 cm^−1 measured for 4
Experimental: Finally, indigoid-dye formation was carried out in rat liver homogenate (Table 1, rightmost column).
Reactions in rat liver homogenate. An indoxyl compound in DMF (5 μL, 20 mM) was mixed with rat liver homogenate (95 μL). The reaction mixture was incubated at 37° C. for 24 h. After allowing to cool to room temperature, the reaction mixture was diluted with DMF (900 μL). The mixture was heated at 70° C. for 2 min and then centrifuged for 2 min. The supernatant was separated from any precipitate. This extraction procedure was repeated two or three times with DMF (100-500 μL). The combined supernatant (1500-1800 μL) was analyzed by absorption spectroscopy.

[1] = molecular target: T1, β-glucosidase from Agrobacterium (Agrobacterium sp., UniProt P12614); assay: Indigogenic reaction with β-glucosidase from Agrobacterium
T1 construct: purchased Megazyme
T1 sequence (P12614 1-459): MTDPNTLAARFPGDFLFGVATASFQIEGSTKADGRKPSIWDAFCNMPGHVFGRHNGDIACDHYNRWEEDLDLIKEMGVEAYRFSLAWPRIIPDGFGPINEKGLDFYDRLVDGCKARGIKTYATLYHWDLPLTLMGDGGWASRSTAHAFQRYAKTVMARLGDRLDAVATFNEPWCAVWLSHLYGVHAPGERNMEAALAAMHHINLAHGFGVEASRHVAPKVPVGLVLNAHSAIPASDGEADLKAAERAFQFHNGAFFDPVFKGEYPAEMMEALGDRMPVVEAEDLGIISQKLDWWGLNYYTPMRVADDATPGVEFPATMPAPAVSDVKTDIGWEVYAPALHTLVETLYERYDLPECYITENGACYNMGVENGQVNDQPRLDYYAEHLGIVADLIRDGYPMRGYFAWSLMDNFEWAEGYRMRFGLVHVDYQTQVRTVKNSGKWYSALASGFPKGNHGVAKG
Experimental: Next, the β-glucosidase from Agrobacterium sp. was investigated as the trigger enzyme for indigoid dye formation. […] The reaction was carried out using the enzyme (200 nM) and indoxyl-glucoside 33 (100 μM) in phosphate buffer (pH 4-9, containing 2% DMF) at 37° C. […] Note that with 200 nM enzyme and 100 μM substrate, complete reaction requires 500 turnovers of each enzyme.
Reactions with β-glucosidase from Agrobacterium. An indoxyl compound in DMF (2 μL, 5 mM) and β-glucosidase from Agrobacterium in 10 mM phosphate buffer [2 μL, 10 μM, pH 7.0, containing 50 mM NaCl and 0.6 M (NH4)2SO4] were mixed with 50 mM phosphate buffer (96 μL, pH 7.0). The reaction mixture was incubated at 37° C. for 2 h and then centrifuged for 3 min. Any precipitate was separated from the supernatant and dissolved in DMF (200 μL). The resulting solution was analyzed by absorption spectroscopy. The experiment was repeated three times.

[2] = test system: β-glucosidase from almonds; assay: Indigogenic reaction with β-glucosidase from almonds
[3] = indoxyl 100 μM, enzyme 200 nM, 0.05M phosphate buffer pH 7.0, 2% DMF, 37° C., 2 h, three repeats, ε = 1.27 × 10^4 M^−1 cm^−1 measured for 4
[4] = indoxyl 1 mM, enzyme 1 unit/mL, 0.01M acetate buffer pH 5, 5% DMF, 37° C., 16-19 h, ε = 1.27 × 10^4 M^−1 cm^−1 measured for 4
[5] = as E4 but ε measured for 43 (footnote g)
[6] = as E1 but ε measured for 43 (footnote g)

COC(=O)COc1ccc2[nH]cc(O[C@@H]3O[C@H](CO)[C@@H](O)[C@H](O)[C@H]3O)c2c1Br [compound 23, 4-Bromo-5-(methoxycarbonyl)methoxy-1H-indol-3-yl β-D-glucopyranoside]
Yield (%) of indigoid dye, rat liver homogenate (rat liver homogenate): <5% | Yield (%) of indigoid dye, β-glucosidase from Agrobacterium [1, 3]: 84 ± 4% | Yield (%) of indigoid dye, β-glucosidase from almonds [2, 4]: 68%

C#CCOc1ccc2[nH]cc(O[C@@H]3O[C@H](CO)[C@@H](O)[C@H](O)[C@H]3O)c2c1Br [compound 26, 4-Bromo-5-propargyloxy-1H-indol-3-yl β-D-glucopyranoside]
Yield (%) of indigoid dye, rat liver homogenate (rat liver homogenate): 17% | Yield (%) of indigoid dye, β-glucosidase from Agrobacterium [1, 3]: 79 ± 1% | Yield (%) of indigoid dye, β-glucosidase from almonds [2, 4]: 56%

C#CCOc1ccc2[nH]cc(O[C@@H]3O[C@H](CO)[C@@H](O)[C@H](O)[C@H]3O)c2c1 [compound 25, 5-Propargyloxy-1H-indol-3-yl β-D-glucopyranoside]
Yield (%) of indigoid dye, rat liver homogenate (rat liver homogenate): 11% | Yield (%) of indigoid dye, β-glucosidase from Agrobacterium [1, 3]: 37 ± 2% | Yield (%) of indigoid dye, β-glucosidase from almonds [2, 4]: <5%

COC(=O)COc1ccc2[nH]cc(OC3O[C@H](CO)[C@@H](O)[C@H](O)[C@H]3O)c2c1 (stereo partly drawn) [compound 22, 5-(Methoxycarbonyl)methoxy-1H-indol-3-yl-D-glucopyranoside]
Yield (%) of indigoid dye, rat liver homogenate (rat liver homogenate): <5% | Yield (%) of indigoid dye, β-glucosidase from Agrobacterium [1, 3]: 30 ± 6% | Yield (%) of indigoid dye, β-glucosidase from almonds [2, 4]: <1%

5-bromo-4-chloroindoxyl β-glucoside [compound 42, reference compound]
Yield (%) of indigoid dye, rat liver homogenate (rat liver homogenate): 65% | Yield (%) of indigoid dye, β-glucosidase from Agrobacterium ([1]; as E4 but ε = 2.00 × 10^4 M^−1 cm^−1 reported for 5,5′-dibromo-4,4′-dichloroindigo (footnote e)): 116% and 116 ± 8^e % | Yield (%) of indigoid dye, β-glucosidase from almonds ([2]; as E1 but ε = 2.00 × 10^4 M^−1 cm^−1 reported for 5,5′-dibromo-4,4′-dichloroindigo (footnote e)): 74% and 74^e %

COC(=O)COc1c(Br)cc2[nH]cc(O[C@@H]3O[C@H](CO)[C@@H](O)[C@H](O)[C@H]3O)c2c1Br [compound 24, 4,6-Dibromo-5-(methoxycarbonyl)methoxy-1H-indol-3-yl β-D-glucopyranoside]
Yield (%) of indigoid dye, rat liver homogenate (rat liver homogenate): <5% | Yield (%) of indigoid dye, β-glucosidase from Agrobacterium [1, 5]: 102 + 3% | Yield (%) of indigoid dye, β-glucosidase from Agrobacterium [1, 3]: 209 ± 6% | Yield (%) of indigoid dye, β-glucosidase from almonds [2, 6]: 59% | Yield (%) of indigoid dye, β-glucosidase from almonds [2, 4]: 122%

COc1nc(Oc2ccc3[nH]cc(O[C@@H]4O[C@H](CO)[C@@H](O)[C@H](O)[C@H]4O)c3c2Br)nc(N2CCOCC2)n1 [compound 20, 4-Bromo-5-[(4-methoxy-6-morpholino-1,3,5-triazin-2-yl)oxy]-1H-indole-3-yl β-D-glucopyranoside]
Yield (%) of indigoid dye, rat liver homogenate (rat liver homogenate): <5% | Yield (%) of indigoid dye, β-glucosidase from Agrobacterium [1, 3]: 150 ± 3%

C#CCOc1c(Br)cc2[nH]cc(O[C@@H]3O[C@H](CO)[C@@H](O)[C@H](O)[C@H]3O)c2c1Br [compound 27, 4,6-Dibromo-5-propargyloxy-1H-indol-3-yl β-D-glucopyranoside]
Yield (%) of indigoid dye, rat liver homogenate (rat liver homogenate): 50% | Yield (%) of indigoid dye, β-glucosidase from Agrobacterium [1, 5]: 89 ± 2% | Yield (%) of indigoid dye, β-glucosidase from Agrobacterium [1, 3]: 184 ± 3% | Yield (%) of indigoid dye, β-glucosidase from almonds [2, 6]: 51% | Yield (%) of indigoid dye, β-glucosidase from almonds [2, 4]: 105%

COc1nc(Oc2ccc3[nH]cc(O[C@@H]4O[C@H](CO)[C@@H](O)[C@H](O)[C@H]4O)c3c2)nc(N2CCOCC2)n1 [compound 19, 5-[(4-Methoxy-6-morpholino-1,3,5-triazin-2-yl)oxy]-1H-indole-3-yl β-D-glucopyranoside]
Yield (%) of indigoid dye, rat liver homogenate (rat liver homogenate): <5% | Yield (%) of indigoid dye, β-glucosidase from Agrobacterium [1, 3]: 46 + 5% | Yield (%) of indigoid dye, β-glucosidase from almonds [2, 4]: <1%

OC[C@H]1O[C@@H](Oc2c[nH]c3cc(Br)c(OC[C@@H]4[C@@H]5CCC#CCC[C@@H]54)c(Br)c23)[C@H](O)[C@@H](O)[C@@H]1O [compound 30, 5-{[(1R,8S,9s)-Bicyclo[6.1.0]non-4-yn-9-yl]methoxy}-4,6-dibromo-1H-indole-3-yl β-D-glucopyranoside]
Yield (%) of indigoid dye, β-glucosidase from Agrobacterium [1, 5]: 10% and 10 ± 0.4% | Yield (%) of indigoid dye, β-glucosidase from Agrobacterium [1, 3]: 21 ± 1%

5-[(Benzylcarbamoyl)oxy)]-1H-indole-3-yl β-D-glucopyranoside [compound 16]
Yield (%) of indigoid dye, rat liver homogenate (rat liver homogenate): 9% | Yield (%) of indigoid dye, β-glucosidase from almonds [2, 4]: 24%

COc1nc(Oc2c(Br)cc3[nH]cc(O[C@@H]4O[C@H](CO)[C@@H](O)[C@H](O)[C@H]4O)c3c2Br)nc(N2CCOCC2)n1 [compound 21, 4,6-Dibromo-5-[(4-methoxy-6-morpholino-1,3,5-triazin-2-yl)oxy]-1H-indole-3-yl β-D-glucopyranoside]
Yield (%) of indigoid dye, rat liver homogenate (rat liver homogenate): <5% | Yield (%) of indigoid dye, β-glucosidase from Agrobacterium [1, 5]: 31 ± 2% | Yield (%) of indigoid dye, β-glucosidase from Agrobacterium [1, 3]: 63 ± 4%

From US12502440B2, “Cross-linking compounds and methods of use thereof” (North Carolina State University, priority 2019, dated 2025)
